Like-named read-outs stand apart in the source and are kept apart here.
How the values were obtained:
[1] = system: JEG-3 cells; assay: CellTiter-Glo luminescent cell viability assay (HTTS); format: cell-based, human; settings: for Viability ↓, lowest concentration at which the mean response value exceeded the mean control value ± 2*SD (rough binning): decrease; for cell viability relative to vehicle control (rough binning): after 24 h, in at least one concentration
How it was run: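 JEG-3 cells (2,500/well) adhered overnight, then exposed 24 h to PFAS (methanol stocks; vehicle 2.5% methanol, top concentration 500 µM). Viability read by CellTiter-Glo ATP luminescence in the same wells as mitochondrial membrane potential; wells with 0 h confluence <20% or >80% excluded.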

[2] = system: JEG-3 cells; assay: Scratch wound migration assay; format: cell-based, human; settings: for Migration, percent of wound closure: 100 µM, after 72 h; for cellular migration relative to vehicle control: after 24 h of exposure, 25-200 µM; for significant effects on migration observed at 24 h, followed to 72 h: any concentration, by 72 h
Experimental: JEG-3 cells were cultured as described in Cell Culture section, and six PFAS were evaluated across an 8-point linear concentration curve ranging from 25 to 200 µM (25 µM steps): PFOA (335-67-1), GenX (62037-80-3), PFOS (1763-23-1), perfluorooctanesulfonamide (PFOSA, 754-91-6), perfluorooctanamide (PFOAA, 423-54-1), and perfluorononanoic acid (PFNA, 375-95-1). The vehicle control group consisted of 98% media + 2% methanol to match the concentration of methanol in the media at the highest PFAS concentration tested (200 µM). Cadmium chloride (25 µM) was used as a positive control for cytotoxicity ([Brooks and Fry, 2017]). Chemical exposure plate maps were designed so that all experimental conditions were tested in at least technical duplicates per plate. The outer edges of each plate received media alone and were excluded from all analyses to avoid edge effects. JEG-3 cells were counted and seeded at a density of 80,000 cells per well in black-walled, clear bottom 96-well plates (Corning #CLS3603, Millipore Sigma) and allowed to adhere and grow for 36 h. After approximately 36 h, 96-well plates were imaged on the IncuCyte Zoom to obtain cellular confluence measurements prior to chemical dosing (0 h). Media was then removed from wells and replaced with fresh serum-free media containing chemical treatments (serum-free exposure media) using the Viaflo liquid handling device. After 1 h of treatment with serum-free exposure media, plates were again imaged for cellular confluence using the IncuCyte Zoom. Serum-free exposure media was then removed from wells and wells were scratched by dragging a 200 µl pipette tip from top to bottom of each well, changing tips every well. Fresh media containing serum and chemical treatments (exposure media) was added to plates using a liquid handling device and allowed to grow for 72 h, with imaging via the IncuCyte Zoom every 6 h.
Plate well bottom images were evaluated using automated cell masking as described in Proliferation section. Cell migration was calculated as the change in cellular confluence from the baseline measurement obtained immediately post-scratch to each subsequent time point (24, 48, and 72 h, post-scratch).
Raw migration assay data exported from IncuCyte software were analyzed using GraphPad Prism 8.0 (GraphPad Software, San Diego, CA)). Prior to analysis, a minimum starting confluence value of 70% was set to ensure comparisons between samples were not skewed. Images with a starting confluence of less than 70% were excluded from analysis. Statistical analysis was performed using multiple unpaired t-tests to compare treated groups to the vehicle control followed by post hoc correction for multiple tests using the Bonferroni-Dunn method. Concentration-response analysis to determine migration assay EC50s was attempted but was not able to be modeled due to the non-linear nature of the concentration-response relationship for this endpoint.

[3] = JEG-3 cells, 24 h exposure, four-parameter fit, estimates meeting inclusion criteria, read-out: Viability EC50 ± SD
[4] = Homo sapiens, JEG-3, 24 h, read-out: Viability EC50 ± SD, JEG-3 cells, 24 h exposure, four-parameter fit, estimates meeting inclusion criteria

Compound	Viability ↓, lowest concentration at which the mean response value exceeded the mean control value ± 2*SD (rough binning) ([1]; JEG-3 cells, 24 h)	cell viability relative to vehicle control (rough binning) [1]	Migration, percent of wound closure [2]	cellular migration relative to vehicle control [2]	EC50 [1, 3]	significant effects on migration observed at 24 h, followed to 72 h [2]	EC50 [1, 4]	EC50 ([1]; Homo sapiens, JEG-3, 24 h, read-out: viability EC50 ± SE, JEG-3 cells, 24 h)	EC50 ([1]; read-out: Viability EC50 ± SD, JEG-3 cells, 24 h exposure, four-parameter fit, estimates meeting inclusion criteria)	EC50 ([1]; JEG-3 cells, 24 h exposure, four-parameter fit, estimates meeting inclusion criteria, listed as PFOS, read-out: Viability EC50 ± SD)	Viability ↑, lowest concentration at which the mean response value exceeded the mean control value ± 2*SD (rough binning) ([1]; JEG-3 cells, 24 h, increase)
N.O=C(O)C(F)(OC(F)(F)C(F)(F)C(F)(F)F)C(F)(F)F (stereo not drawn) [Ammonium perfluoro-2-methyl-3-oxahexanoate]	350 µM	reduced cell viability	79%	significantly reduced	–	–	–	–	–	–	–
O=C(O)C(F)(F)C(F)(F)C(F)(F)C(F)(F)C(F)(F)C(F)(F)C(F)(F)C(F)(F)F [Perfluorononanoic acid]	350 µM	reduced cell viability	–	significantly reduced	333 ± 10.3 µM	attenuated	–	–	–	–	–
NS(=O)(=O)C(F)(F)C(F)(F)C(F)(F)C(F)(F)C(F)(F)C(F)(F)C(F)(F)C(F)(F)F [Perfluorooctanesulfonamide]	–	–	–	significantly reduced	–	–	175 ± 4.9 µM	176 ± 5 µM	176 ± 4.9 µM	–	–
O=S(=O)(O)C(F)(F)C(F)(F)C(F)(F)C(F)(F)C(F)(F)C(F)(F)C(F)(F)C(F)(F)F [Perfluorooctanesulfonic acid]	300 µM	reduced cell viability	57%	significantly reduced	291 ± 9.1 µM	–	–	–	–	291 µM	–
O=C(O)C(F)(F)C(F)(F)C(F)(F)C(F)(F)C(F)(F)C(F)(F)C(F)(F)F [Perfluorooctanoic acid]	–	–	72%	significantly reduced	–	attenuated	358 ± 16.9 µM	–	–	–	200 µM

Source: publication PMC9081605, “A High-Throughput Toxicity Screen of 42 Per- and Polyfluoroalkyl Substances (PFAS) and Functional Assessment of Migration and Gene Expression in Human Placental Trophoblast Cells” (Frontiers in Toxicology, 2022)
